Where two headings read alike, the source gives them in different places.
Test system: THP1 luciferase reporter cells
Experiment: cells
Format: cell-based
[1] = 16 hours, read-out: THP1-ISG-Luc with PFO, EC50
[2] = 16 hours, read-out: THP-ISG-Luc without PFO, EC50
[3] = Homo sapiens, THP-1, 16 h, read-out: THP1-ISG-Luc with PFO, EC50
[4] = Homo sapiens, THP-1, 16 h, read-out: THP-ISG-Luc without PFO, EC50

| Compound | EC50 [1] | EC50 [2] | EC50 [3] | EC50 [4] | further results |
| --- | --- | --- | --- | --- | --- |
| Nc1nc2c(ncn2[C@@H]2O[C@@H]3COP(=O)(S)OC4C(O)[C@H](n5cnc6c(N)ncnc65)O[C@@H]4COP(=O)(O)OC2C3O)c(=O)[nH]1 (single isomer, unassigned) [Example E7] | < 100 nM | < 30000 nM |  |  |  |
| Nc1nc2c(ncn2[C@@H]2O[C@@H]3COP(=O)(S)OC4C(O)[C@H](n5nnc6c(N)ncnc65)O[C@@H]4COP(=O)(S)OC2C3O)c(=O)[nH]1 (some centres unmarked) [Example E19] |  |  | > 1000 nM | > 100000 nM |  |
| Nc1nc2c(ncn2[C@@H]2O[C@@H]3COP(=O)(O)OC4C(O)[C@@H](COP(=O)(O)OC2C3OCC(F)(F)F)O[C@H]4n2cnc3c(N)ncnc32)c(=O)[nH]1 (stereo in doubt) [EC13] |  |  | 100 to 1000 nM | < 30000 nM |  |
| Nc1nc2c(ncn2[C@@H]2O[C@@H]3COP(=O)(O)O[C@@H]4C(O)[C@H](n5cnc6c(N)ncnc65)O[C@@H]4COP(=O)(N4CCOCC4)OC2[C@H]3O)c(=O)[nH]1 (some centres unmarked) [Example E24] |  |  |  |  | EC50 (Homo sapiens, THP-1, 16 hours, read-out: THP1-ISG-Luc with PFO, EC50): 100 to 1000 nM; EC50 (Homo sapiens, THP-1, 16 hours, read-out: THP-ISG-Luc without PFO, EC50): < 30000 nM |
| Nc1nc2c(ncn2[C@@H]2O[C@@H]3COP(=O)(O)OC4C[C@H](n5ccc6ccccc65)O[C@@H]4COP(=O)(S)OC2C3O)c(=O)[nH]1 (single isomer, unassigned) [EC18] | > 1000 nM | > 100000 nM |  |  |  |
| Nc1ncnc2c1ccn2[C@@H]1O[C@@H]2COP(=O)(S)OC3C(O)[C@@H](COP(=O)(O)OC2C1O)O[C@H]3n1ccc2c(N)ncnc21 (some centres unmarked) [EC7] | > 1000 nM | > 100000 nM |  |  |  |
| Nc1nc2c(ncn2[C@@H]2O[C@@H]3COP(=O)(S)OC4C(O)[C@H](n5ccc6c(N)ncnc65)O[C@@H]4COP(=O)(S)OC2C3O)c(=O)[nH]1 (single isomer, unassigned) [Example E18] | < 100 nM | < 30000 nM |  |  |  |
| Nc1nc2c(ncn2[C@@H]2O[C@@H]3COP(=O)(O)OC4C(O)[C@H](n5ccc6c(N)ncnc65)O[C@@H]4COP(=O)(O)OC2C3OCC(F)(F)F)c(=O)[nH]1 (stereo in doubt) [EC3] |  |  | 100 to 1000 nM | < 30000 nM |  |
| Nc1nc2c(ncn2[C@@H]2O[C@@H]3COP(=O)(O)OC4C(O)[C@H](n5cnc6c(N)ncnc65)O[C@@H]4COP(=O)(O)OC2C3OCC(F)(F)F)c(=O)[nH]1 (stereo in doubt) [EA2] |  |  | < 100 nM | < 30000 nM |  |
| Nc1nc2c(ncn2[C@@H]2O[C@@H]3COP(=O)(O)OC4C(O)[C@H](n5ccc6c(N)ncnc65)O[C@@H]4COP(=O)(O)OC2C3O)c(=O)[nH]1 (stereo in doubt) [Example E5] |  |  | > 1000 nM | > 100000 nM |  |
| Nc1nc2c(ccn2[C@@H]2O[C@@H]3COP(=O)(S)OC4C(O)[C@@H](COP(=O)(O)OC3C2O)O[C@H]4n2ccc3c(=O)[nH]c(N)nc32)c(=O)[nH]1 (single isomer, unassigned) [EC5] | 100 to 1000 nM | 30000 to 100000 nM |  |  |  |
| Nc1nc2c(ncn2[C@@H]2O[C@@H]3COP(=O)(S)O[C@@H]4C(O)[C@H](n5ccc6c(N)ncnc65)O[C@@H]4COP(=O)(S)O[C@H]2C3O)c(=O)[nH]1 (single isomer, unassigned) [Example E15] |  |  | > 1000 nM | > 100000 nM |  |
| Nc1nc2c(ncn2[C@@H]2O[C@@H]3COP(=O)(S)OC4C(O)[C@H](n5ncc6c(N)ncnc65)O[C@@H]4COP(=O)(S)OC2C3O)c(=O)[nH]1 (single isomer, unassigned) [EA4] | 100 to 1000 nM | < 30000 nM |  |  |  |
| Nc1nc2c(ncn2[C@@H]2O[C@@H]3COP(=O)(S)OC4C(O)[C@H](n5cnc6c(N)ncnc65)O[C@@H]4COP(=O)(O)OC2C3O)c(=O)[nH]1 (single isomer, unassigned) [Example E6] |  |  | < 100 nM | < 30000 nM |  |
| Nc1nc2c(ccn2[C@@H]2O[C@@H]3COP(=O)(O)OC4C(O)[C@H](n5cnc6c(N)ncnc65)O[C@@H]4COP(=O)(S)OC2C3O)c(=O)[nH]1 (stereo in doubt) [EB3] |  |  | < 100 nM | < 30000 nM |  |
| Nc1nc2c(ccn2[C@@H]2O[C@@H]3COP(=O)(S)OC4C(O)[C@H](n5ccc6c(N)ncnc65)O[C@@H]4COP(=O)(S)OC2C3O)c(=O)[nH]1 (single isomer, unassigned) [Example E21] | 100 to 1000 nM | < 30000 nM |  |  |  |
| Nc1nc2c(ccn2[C@@H]2O[C@@H]3COP(=O)(S)OC4C(O)[C@H](n5cnc6c(N)ncnc65)O[C@@H]4COP(=O)(S)OC2C3O)c(=O)[nH]1 (single isomer, unassigned) [EA8] | 100 to 1000 nM | < 30000 nM |  |  |  |
| Nc1nc2c(ccn2[C@@H]2O[C@@H]3COP(=O)(S)OC4C(O)[C@H](n5ccc6c(N)ncnc65)O[C@@H]4COP(=O)(S)OC2C3O)c(=O)[nH]1 (single isomer, unassigned) [Example E20] |  |  | 100 to 1000 nM | < 30000 nM |  |
| Nc1nc2c(ncn2[C@@H]2O[C@@H]3COP(=O)(O)OC4C[C@H](c5ccc6ccc7cccc8ccc5c6c78)O[C@@H]4COP(=O)(S)OC2C3O)c(=O)[nH]1 (single isomer, unassigned) [EC21] | > 1000 nM | > 100000 nM |  |  |  |
| Nc1nc2c(ncn2[C@@H]2O[C@@H]3COP(=O)(O)OC4C[C@H](n5ccc6ccccc65)O[C@@H]4COP(=O)(O)OC2C3OCC(F)(F)F)c(=O)[nH]1 (stereo in doubt) [EC16] |  |  | > 1000 nM | > 100000 nM |  |
| Nc1nc2c(ncn2[C@@H]2O[C@@H]3COP(=O)(O)OC4C(O)[C@H](n5ccc6c(N)ncnc65)O[C@@H]4COP(=O)(S)OC2C3OCC(F)(F)F)c(=O)[nH]1 (single isomer, unassigned) [EC2] |  |  | 100 to 1000 nM | 30000 to 100000 nM |  |
| Nc1nc2c(cnn2[C@@H]2O[C@@H]3COP(=O)(S)OC4C(O)[C@H](n5cnc6c(N)ncnc65)O[C@@H]4COP(=O)(S)OC2C3O)c(=O)[nH]1 (single isomer, unassigned) [EB7] |  |  | > 1000 nM | > 100000 nM |  |

Source: US11299512B2 (priority 2016, dated 2022)
